The text below walks through data of patent publication US9440957B2, “Compounds and compositions for modulating EGFR Activity” (Novartis AG, priority 2012, dated 2016).

Structures are written as SMILES. pIC50: −log10 of the molar value. Read-outs that look alike come from different tables or passages of the source.

Experiment [1] has as its target H1975 (EGFR L858/T790M) (Homo sapiens, UniProt P00533, L858R/T790M). Put plainly: EGFR target modulation in H1975 cell line (phospho-EGFR Y1173 ELISA). The class given is cell-based. Put shortly:
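pY1173 was measured by sandwich ELISA with anti-EGFR capture and chemiluminescent read-out. Before lysis, each cell line (HCC827, H1975, H3255) was treated with compound for 3 hours. IC50 derived by non-linear fit, normalised to EGF-stimulated controls as maximum.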
In general terms: ELISA stands for enzyme-linked immunosorbent assay.

Experiment [2] addresses human EGFR L858R (NIH/3T3 cells) (Homo sapiens, UniProt P00533, L858R). Briefly: EGFR target modulation in engineered NIH/3T3 cell lines (phospho-EGFR Y1068 AlphaLISA), EGFR L858R. The class given is cell-based. Conditions: engineered NIH/3T3 cells, read-out: NIH3T3 IC50 (μM) EGFR (L858R). Put shortly: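 Engineered NIH/3T3 cells expressing EGFR variants treated 3 h at 37 °C with 12-point 1:3 compound series (top stock 10 μM); only WT cells stimulated with 50 ng/ml EGF for 5 min before lysis. Phospho-Y1068 measured by AlphaLISA with total-EGFR antibody; IC50 from non-linear fitting.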
On the technique in general: Alpha assays give light when donor and acceptor beads are brought close together.

For experiment [3], the target named is T1, EGFR(L858R/T790M) (Homo sapiens, UniProt P00533, L858R/T790M).
T1 construct: purchased from Carna (GST-a.a. 669-1210)
Briefly: EGFR biochemical assay (HTRF), IC50 determinations. Put shortly:
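Two formats were run: compound preincubated at room temperature with enzyme and biotin-TK peptide before ATP starts the reaction, or no preincubation with enzyme added last. Reactions ran 60 min at room temperature and were stopped with EDTA. Phosphopeptide was read by HTRF (PT66K/SAXL, 1 h).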

Experiment [4] concerns the target HaCaT (EGFR WT) (Homo sapiens, UniProt P00533). Put plainly: EGFR target modulation in HaCaT (EGFR-WT) cell line (phospho-EGFR Y1173 ELISA). The class given is cell-based. Conditions: value in parentheses. The procedure:
EGFR Target Modulation in HaCaT (EGFR-WT) Cell Line Tissue Culture. […] The serial diluted compounds were transferred to the plate containing cells by using a 50 nl Pin Head device (Perkin Elmer) and the cells were placed back in the incubator for 3 hours. […] Phospho-EGFR ([…]) ELISA. Solid white high-binding ELISA plates (Greiner #781074) were coated with 5 ug/ml anti-EGFR capture antibody (R&D Systems #AF231) overnight in 50 mM carbonate/bicarbonate pH 9.5 buffer. […] Wash steps were carried out with a Bio-Tek ELx405 SelectTM using 4 cycles of 100 ul TBS-T (20 mM Tris, 137 mM NaCl, 0.05% Tween-20) per well. […] Lysis was allowed to occur for 20 minutes on ice. A 25 ul aliquot was added to each well of the blocked ELISA plate and incubated overnight at 4° C. with gentle shaking. […] After washing, 1:2,000 anti-rabbit-HRP (Cell Signaling #7074) in 0.2% BSA/TBS-T was added and incubated for 1 hour at room temperature. Chemiluminescent detection was carried out with SuperSignal ELISA Pico substrate (ThermoScientific #37069). Signal was read on EnVision plate reader using built-in UltraLUM setting. Data Analysis. Control cells treated with EGF were set to 100% maximum response. […] With these parameters, the IC50's for each compound in each cell line was calculated using non-linear curve fitting analysis.

Where [5] appears, read: EGFR (L858R/T790M) with 90 min pre-incubation, read-out: IC50 (μM) Column B.
Where [6] appears, read: EGFR (L858R/T790M) with no pre-incubation, read-out: IC50 (μM) Column A.

Chain of H1975 (EGFR L858/T790M) (P00533 25-1210 T790M/L858R): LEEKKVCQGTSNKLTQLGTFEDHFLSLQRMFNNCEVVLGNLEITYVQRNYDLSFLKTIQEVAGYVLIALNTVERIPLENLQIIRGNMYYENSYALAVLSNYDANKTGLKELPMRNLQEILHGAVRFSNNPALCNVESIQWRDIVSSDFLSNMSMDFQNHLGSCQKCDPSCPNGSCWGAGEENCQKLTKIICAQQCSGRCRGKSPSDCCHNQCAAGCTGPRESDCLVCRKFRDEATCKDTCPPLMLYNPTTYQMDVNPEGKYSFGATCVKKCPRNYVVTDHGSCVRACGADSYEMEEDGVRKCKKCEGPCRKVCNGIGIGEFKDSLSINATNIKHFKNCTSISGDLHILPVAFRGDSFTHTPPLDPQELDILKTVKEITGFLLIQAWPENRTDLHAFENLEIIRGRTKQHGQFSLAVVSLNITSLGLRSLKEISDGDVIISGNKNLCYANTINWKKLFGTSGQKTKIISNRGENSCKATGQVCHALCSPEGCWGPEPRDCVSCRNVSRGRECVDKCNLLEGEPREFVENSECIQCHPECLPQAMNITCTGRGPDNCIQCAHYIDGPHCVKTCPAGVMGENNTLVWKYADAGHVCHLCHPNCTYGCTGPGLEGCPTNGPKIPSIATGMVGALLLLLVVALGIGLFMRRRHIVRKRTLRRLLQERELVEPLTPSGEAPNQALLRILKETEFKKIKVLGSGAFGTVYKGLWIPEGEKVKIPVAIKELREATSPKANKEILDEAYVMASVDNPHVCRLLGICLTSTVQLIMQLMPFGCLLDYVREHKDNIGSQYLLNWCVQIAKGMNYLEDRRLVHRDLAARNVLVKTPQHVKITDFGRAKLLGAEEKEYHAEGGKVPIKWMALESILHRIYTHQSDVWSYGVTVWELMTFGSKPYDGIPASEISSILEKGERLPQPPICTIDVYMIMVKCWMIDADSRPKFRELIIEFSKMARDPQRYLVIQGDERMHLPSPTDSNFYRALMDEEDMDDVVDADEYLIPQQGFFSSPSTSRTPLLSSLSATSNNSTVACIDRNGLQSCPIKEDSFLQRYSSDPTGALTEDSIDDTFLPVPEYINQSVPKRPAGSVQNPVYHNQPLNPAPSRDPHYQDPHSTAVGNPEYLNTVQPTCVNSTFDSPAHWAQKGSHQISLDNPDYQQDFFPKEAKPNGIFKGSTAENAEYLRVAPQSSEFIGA
Chain of HaCaT (EGFR WT) (P00533 25-1210): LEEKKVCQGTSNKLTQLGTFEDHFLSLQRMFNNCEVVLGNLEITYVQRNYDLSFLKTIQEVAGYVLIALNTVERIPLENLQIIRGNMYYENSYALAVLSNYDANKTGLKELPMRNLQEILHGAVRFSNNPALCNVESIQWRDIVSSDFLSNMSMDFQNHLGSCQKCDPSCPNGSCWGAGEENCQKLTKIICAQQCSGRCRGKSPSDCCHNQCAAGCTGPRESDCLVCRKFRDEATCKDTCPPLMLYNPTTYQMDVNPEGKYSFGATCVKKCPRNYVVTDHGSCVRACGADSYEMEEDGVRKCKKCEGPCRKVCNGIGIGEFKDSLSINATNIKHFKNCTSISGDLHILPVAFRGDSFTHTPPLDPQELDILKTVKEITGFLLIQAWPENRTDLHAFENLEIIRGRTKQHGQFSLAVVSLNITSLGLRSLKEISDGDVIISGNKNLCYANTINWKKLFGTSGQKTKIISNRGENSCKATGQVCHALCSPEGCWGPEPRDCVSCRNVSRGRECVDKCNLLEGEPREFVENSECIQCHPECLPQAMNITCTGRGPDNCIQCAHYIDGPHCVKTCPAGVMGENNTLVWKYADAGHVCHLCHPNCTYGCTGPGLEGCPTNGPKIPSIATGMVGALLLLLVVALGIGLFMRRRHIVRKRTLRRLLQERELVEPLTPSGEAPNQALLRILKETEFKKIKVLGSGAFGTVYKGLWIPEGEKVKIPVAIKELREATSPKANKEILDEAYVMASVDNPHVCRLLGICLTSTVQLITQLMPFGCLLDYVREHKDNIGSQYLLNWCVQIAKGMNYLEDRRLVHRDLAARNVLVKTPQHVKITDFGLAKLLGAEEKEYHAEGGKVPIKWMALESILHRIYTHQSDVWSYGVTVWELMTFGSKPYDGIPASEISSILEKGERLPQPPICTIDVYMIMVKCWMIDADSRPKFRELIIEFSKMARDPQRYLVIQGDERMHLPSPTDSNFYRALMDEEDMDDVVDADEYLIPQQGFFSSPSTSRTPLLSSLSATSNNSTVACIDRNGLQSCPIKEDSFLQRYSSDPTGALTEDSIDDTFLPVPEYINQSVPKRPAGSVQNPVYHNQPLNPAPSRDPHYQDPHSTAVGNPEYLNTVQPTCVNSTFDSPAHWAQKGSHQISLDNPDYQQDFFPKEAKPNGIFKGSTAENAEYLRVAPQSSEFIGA
T1 sequence (P00533 669-1210 T790M/L858R): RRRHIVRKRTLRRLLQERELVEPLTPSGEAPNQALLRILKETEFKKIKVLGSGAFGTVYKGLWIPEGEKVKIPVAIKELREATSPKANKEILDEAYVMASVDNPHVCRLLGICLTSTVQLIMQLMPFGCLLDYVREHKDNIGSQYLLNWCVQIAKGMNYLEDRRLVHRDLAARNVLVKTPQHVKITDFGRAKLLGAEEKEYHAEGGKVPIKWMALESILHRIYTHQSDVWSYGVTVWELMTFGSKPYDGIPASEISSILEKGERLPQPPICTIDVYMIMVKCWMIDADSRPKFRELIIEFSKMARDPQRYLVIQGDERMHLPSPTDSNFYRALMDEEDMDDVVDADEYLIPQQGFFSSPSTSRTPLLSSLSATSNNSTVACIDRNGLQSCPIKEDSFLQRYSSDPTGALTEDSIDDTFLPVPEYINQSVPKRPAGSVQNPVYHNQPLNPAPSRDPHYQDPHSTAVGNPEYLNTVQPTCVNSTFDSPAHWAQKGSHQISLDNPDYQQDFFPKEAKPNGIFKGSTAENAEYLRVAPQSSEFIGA
Chain of human EGFR L858R (NIH/3T3 cells) (P00533 25-1210 L858R): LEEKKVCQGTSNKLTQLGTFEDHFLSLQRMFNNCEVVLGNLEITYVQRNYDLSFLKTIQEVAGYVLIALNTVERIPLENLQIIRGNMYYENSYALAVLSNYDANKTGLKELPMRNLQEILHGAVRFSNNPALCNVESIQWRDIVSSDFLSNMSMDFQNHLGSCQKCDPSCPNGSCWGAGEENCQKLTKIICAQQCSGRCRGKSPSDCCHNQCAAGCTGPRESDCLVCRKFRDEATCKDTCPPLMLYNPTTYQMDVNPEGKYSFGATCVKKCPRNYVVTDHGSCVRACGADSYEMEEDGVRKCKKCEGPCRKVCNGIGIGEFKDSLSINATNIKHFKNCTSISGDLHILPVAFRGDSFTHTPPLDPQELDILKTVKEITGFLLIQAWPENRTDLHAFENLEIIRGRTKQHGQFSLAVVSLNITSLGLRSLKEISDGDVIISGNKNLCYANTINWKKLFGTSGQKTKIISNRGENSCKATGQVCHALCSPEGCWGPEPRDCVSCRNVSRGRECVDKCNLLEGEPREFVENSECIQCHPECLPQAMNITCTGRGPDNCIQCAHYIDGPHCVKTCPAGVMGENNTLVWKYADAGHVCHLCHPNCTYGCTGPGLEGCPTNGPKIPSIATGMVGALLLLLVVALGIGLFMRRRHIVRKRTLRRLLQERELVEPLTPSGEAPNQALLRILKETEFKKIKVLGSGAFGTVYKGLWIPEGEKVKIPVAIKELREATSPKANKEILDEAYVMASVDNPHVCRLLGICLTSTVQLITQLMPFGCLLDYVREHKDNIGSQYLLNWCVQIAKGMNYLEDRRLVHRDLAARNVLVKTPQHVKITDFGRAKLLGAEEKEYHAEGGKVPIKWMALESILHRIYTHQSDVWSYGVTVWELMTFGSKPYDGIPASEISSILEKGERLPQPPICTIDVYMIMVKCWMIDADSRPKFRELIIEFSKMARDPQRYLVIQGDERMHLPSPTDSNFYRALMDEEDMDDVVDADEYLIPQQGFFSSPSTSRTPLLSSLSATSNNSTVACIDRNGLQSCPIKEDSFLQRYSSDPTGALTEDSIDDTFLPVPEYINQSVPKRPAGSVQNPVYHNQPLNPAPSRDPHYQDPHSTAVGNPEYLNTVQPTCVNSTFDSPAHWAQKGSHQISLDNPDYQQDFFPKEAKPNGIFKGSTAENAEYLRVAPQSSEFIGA

For orientation: pIC50 means the negative decadic logarithm of the IC50, by convention in mol/L. By IC50 is commonly meant the concentration that gives 50% inhibition. As to `C=CC(=O)N1CCCC[C@@H](n2c(NC(=O)c3ccnc(C)c3)nc3cc(CN4CC(F)C4)cc(C)c32)C1` [Example 17-152], the pIC50 is 9.00 in experiment [1] and 7.34 in experiment [4]. In addition, the IC50 was under 0.001 µM in experiment [2], under 0.001 µM in experiment [3] (setting [5]) and 0.002 µM in experiment [3] (setting [6]).

As to `C=CC(=O)N1CCCC[C@@H](n2c(NC(=O)c3ccnc(C)c3)nc3cc(CN4CC[C@H](OC)C4)cc(C)c32)C1` [Example 17-149], the pIC50 was over 9.00 in experiment [1] and 7.32 in experiment [4]. Further, the figures for the IC50 in experiment [2], in experiment [3] (setting [5]) and in experiment [3] (setting [6]) were under 0.001 µM, under 0.001 µM and 0.002 µM, respectively.

As to `C=CC(=O)N1CCCC[C@@H](n2c(NC(=O)c3ccnc(C)c3)nc3cc(CN4CC[C@@H](F)C4)cc(C)c32)C1` [Example 17-148], the pIC50 in experiment [1] was 9.00; in experiment [4] it was 7.28. Also, the 50% inhibitory concentration (IC50) in experiment [2] was 0.001 µM; in experiment [3] (setting [5]), under 0.001 µM; in experiment [3] (setting [6]), 0.002 µM.

`C=CC(=O)N1CCCC[C@@H](n2c(NC(=O)c3ccnc(C)c3)nc3cc(CN4CC[C@H](F)C4)cc(C)c32)C1` [Example 17-147]: the values for the pIC50 in experiment [1] and in experiment [4] were over 9.00 and 7.36, respectively. Also, the IC50 in experiment [2] was under 0.001 µM; in experiment [3] (setting [5]), under 0.001 µM; in experiment [3] (setting [6]) it was 0.002 µM.

As to `C=CC(=O)N1CCCC[C@@H](n2c(NC(=O)c3ccnc(C)c3)nc3cc(CN4CC[C@@H](OC)C4)cc(C)c32)C1` [Example 17-150], the results for the pIC50 in experiment [1] and in experiment [4] were 8.70 and 7.23, respectively. The IC50 in experiment [2] is 0.001 µM; in experiment [3] (setting [5]), under 0.001 µM; in experiment [3] (setting [6]), 0.003 µM.

Regarding `C=CC(=O)N1CCCC[C@@H](n2c(NC(=O)c3ccnc(C)c3)nc3cc(CN4CC(OC)C4)cc(C)c32)C1` [Example 17-154], the figures for the pIC50 in experiment [1] and in experiment [4] were over 9.00 and 7.42, respectively. Further, the IC50 in experiment [2] was under 0.001 µM; in experiment [3] (setting [5]) it was under 0.001 µM; in experiment [3] (setting [6]), 0.002 µM.
